From patent US8722674B2, “1,3,5-triazine-2,4,6-triamine compound or pharmaceutical acceptable salt thereof, and pharmaceutical composition comprising the same” (Hanall Biopharma Co., Ltd., priority 2007, dated 2014)

Legend:
HepG2 cells [1] = assay: Measurement of cholesterol synthesis ability (Amplex red fluorescence); assay type: cell-based; settings: Homo sapiens, HepG2 cells, 24 h treatment, lower is better, read-out: cholesterol synthesis ability, % control
Source text: (§1) Metformin that is widely used in type 2 diabetic patients inhibits the formation of glucose, the synthesis of cholesterol and triglyceride in liver cells and promote the absorption of glucose from blood vessels in the muscle cells. […] In the case of the ability to form cholesterol, triglyceride and glucose, the lower the numerical value, the better the effect. Numerical values for a control group become reference values.
(§2) As a hepatic cell model, HepG2 cells were used to measure cholesterol synthesis inhibitory ability, which is the important function of AMPK. The hepatic cell model HepG2 cells were cultured in 1% serum-containing media for 24 hours, and then treated with each of the compounds for 24 hours. Then, the cells were disrupted with lysis buffer (0.1 M potassium phosphate, pH 7.4, 0.05 M NaCl, 5 mM cholic acid, 0.1% Triton X-100). To the disrupted cells, the same volume of a reaction solution (2 U/ml cholesterol oxidizing agent, 2 U/ml peroxidase, 0.2 U/ml cholesterol esterase, and 300 μM Amplex red as a fluorescent factor) was added and allowed to react at 37° C. for 30 minutes. After completion of the reaction, the cells were measured with a fluorometer at a wavelength of 560/590 nm (ex/em), thus quantifying the amount of […] formed in the cells. A lower measurement value means an increased lipid production inhibitory ability.

C2C12 cells = assay: Measurement of glucose absorption (3H-deoxy-glucose); assay type: cell-based; settings: for effect of reducing insulin resistance, times better than the control group: absorption effect divided by average percent of control group (metformin 2 mM), multiplied by 20
Source text: as §1
As a muscle cell model, C2C12 cells were induced to differentiate into muscle cells in 2% bovine fetal serum for 6 days. The C2C12 cells which differentiated into muscle cells were treated with each of the compounds in serum-free low glucose media, and then cultured with 1 μM of insulin for 24 hours. After cultivation, the cells were treated with 1 μCi 3H-deoxy-glucose and 10 μM deoxy-glucose at 37° C. for 15 minutes. After treatment, the media were removed, and the cells were washed twice with PBS. The washed cells were treated with 0.1 N NaOH and neutralized with 1N HCl. The amount of glucose absorbed into the cells was measured with a liquid scintillation counter. The effect of the compounds was determined by selecting a compound showing an absorption effect of at least 200%, dividing the absorption effect by the average percent of the control group, and then multiplying the divided value by […]. A higher measurement value means a stronger ability to reduce insulin resistance.

HepG2 cells [2] = assay: Measurement of gluconeogenesis (14C-lactate); assay type: cell-based; settings: Homo sapiens, 24 h treatment, lower is better, read-out: gluconeogenesis (glucose synthesis ability), % control
Procedure: as §1
As a hepatic cell model, HepG2 cells were cultured in 10% serum-containing high glucose media, and then treated with each of the compounds for 24 hours. Then, the cells were treated with 0.5 uCi 14C-lactate and 10 mM L-lactate, and cultured for 4 hours. After cultivation, the media of the cells were removed, and the cells were washed with PBS, treated with 0.1N NaOH and left to stand at room temperature for 1 hour. Then, the cells were neutralized with 1N HCl, and the amount of glucose formed in the cells was measured with a liquid scintillation counter. […] A lower measurement value means a stronger blood glucose lowering activity.

HepG2 cells [3] = assay: Measurement of triglyceride (Amplex red fluorescence); assay type: cell-based; settings: Homo sapiens, 24 h treatment, lower is better, read-out: triglyceride synthesis ability, % control
Procedure: as §1
as §2, with “model,” for “model, HepG2 cells were used to measure cholesterol synthesis inhibitory ability, which is the important function of AMPK. The hepatic cell model”, “(0.1M” for “(0.1 M”, “(0.76” for “(2”, “glycerol kinase, […] peroxidase, 22.2 U/ml glycerol” for “cholesterol”, “agent,” for “agent, 2 U/ml peroxidase, 0.2 U/ml cholesterol esterase,”

[4] = Mus musculus, differentiated C2C12 muscle cells, with 1 μM insulin 24 h, higher is better, read-out: glucose absorption, % control

Row | melting point [°C] | Compound | activity at 100 µM (HepG2 cells [1]) [%] | activity at 100 µM (C2C12 cells; [4]) [%] | activity at 100 µM (HepG2 cells [2]) [%] | activity at 100 µM (HepG2 cells [3]) [%] | activity at 200 µM (C2C12 cells; [4]) [%] | activity at 200 µM (HepG2 cells [2]) [%] | activity at 250 µM (HepG2 cells [1]; 250 uM) [%] | activity at 250 µM (C2C12 cells; Mus musculus, 250 uM, differentiated C2C12 muscle cells, with 1 μM insulin 24 h, higher is better, read-out: glucose absorption, % control) [%] | activity at 500 µM (HepG2 cells [2]; 500 uM) [%] | activity at 250 µM (HepG2 cells [3]; 250 uM) [%] | effect of reducing insulin resistance, times better than the control group (C2C12 cells)
1 | 105 to 108 | CN(C)c1nc(N)nc(Nc2ccc(Br)cc2)n1 [Example 18, N2-(4-bromophenyl)-N4,N4-dimethyl-1,3,5-triazine-2,4,6-triamine] | 66.4 | 91.5 | 67 | 44.6 |  |  |  |  |  |  | 
2 | 271.8 to 272.8 | CN(C)c1nc(N)nc(N)n1 [Example 11, N2,N2-dimethyl-1,3,5-triazine-2,4,6-triamine] | 97.7 |  |  | 97.6 | 106 | 70.4 |  |  |  |  | 
3 | 169.9 to 171.8 | Nc1nc(N)nc(NCCc2ccccc2)n1 [Example 13, N2-phenethyl-1,3,5-triazine-2,4,6-triamine] | 92.3 |  |  | 103 | 115 | 99.6 |  |  |  |  | 
4 | 138.2 to 141.6 | CN(C)c1nc(N)nc(NCCN2CCOCC2)n1 [Example 3, N2,N2-dimethyl-N4-(2-morpholinoethyl)-1,3,5-triazine-2,4,6-triamine] |  |  |  |  |  |  | 113 | 132 | 67.6 | 98 | 
5 | 132 to 139 | CN(C)c1nc(N)nc(N2CCN(c3ccccc3)CC2)n1 [Example 39, N2,N2-dimethyl-6-(4-phenylpiperazin-1-yl)-1,3,5-triazine-2,4-diamine] | 55.8 | 115 | 77.4 | 95.3 |  |  |  |  |  |  | 
6 | 155 to 165 | CCCc1ccc(Nc2nc(N)nc(N(C)C)n2)cc1 [Example 27, N2,N2-dimethyl-N4-(4-propylphenyl)-1,3,5-triazine-2,4,6-triamine] | 63.5 | 4.05 | 30.9 | 67.4 |  |  |  |  |  |  | 
7 | 130 to 145 | CCCc1ccccc1Nc1nc(N)nc(N(C)C)n1 [Example 26, N2,N2-dimethyl-N4-(2-propylphenyl)-1,3,5-triazine-2,4,6-triamine] | 62.9 | 170 | 24.7 | 38.6 |  |  |  |  |  |  | 
8 | 307 to 312 | CN(C)c1nc(N)nc(Nc2ccccc2O)n1 [Example 43, 2-(4-amino-6-(dimethylamino)-1,3,5-triazine-2-ylamino)phenol] | 41.1 | 186 | 83.5 | 77 |  |  |  |  |  |  | 
9 | 119 to 120 | CN(C)c1nc(N)nc(NC2CCCCC2)n1 [Example 41, N2-cyclohexyl-N4,N4-dimethyl-1,3,5-triazine-2,4,6-triamine] | 70.8 | 263 | 90.6 | 90.9 |  |  |  |  |  |  | about 16 times
10 | 173 to 182 | CN(C)c1nc(N)nc(N2CCN(c3ccc([N+](=O)[O-])cc3)CC2)n1 [Example 40, N2,N2-dimethyl-6-(4-(4-nitrophenyl)piperazin-1-yl)-1,3,5-triazine-2,4-diamine] | 62.2 | 245 | 39.8 | 110 |  |  |  |  |  |  | about 14 times
11 | 142 to 149 | CCCCCCNc1nc(N)nc(N(C)C)n1 [Example 29, N2-hexyl-N4,N4-dimethyl-1,3,5-triazine-2,4,6-triamine] | 63.5 | 94.5 | 16.3 | 41.2 |  |  |  |  |  |  | 
12 | 182 to 199 | CN(C)c1nc(N)nc(Nc2ccc(F)cc2)n1 [Example 31, N2-(4-fluorophenyl)-N4,N4-dimethyl-1,3,5-triazine-2,4,6-triamine] | 67.2 | 131 | 80.7 | 69.8 |  |  |  |  |  |  | 
13 | 240 to 249 | CN(C)c1nc(N)nc(N2CCCCCC2)n1 [Example 34, 6-(azepan-1-yl)-N2,N2-dimethyl-1,3,5-triazine-2,4-diamine] | 52.6 | 203 | 39.4 | 70.9 |  |  |  |  |  |  | about 12 times
14 | 141.4 to 142 | COc1ccc(CNc2nc(N)nc(N(C)C)n2)cc1O [Example 8, 5-((4-amino-6-(dimethylamino)-1,3,5-triazine-2-ylamino)methyl)-2-methoxyphenol] | 59.1 |  |  | 106 | 126 | 94.8 |  |  |  |  | 
15 | 116.6 to 117.2 | CN(C)c1nc(N)nc(NCCN2CCCCC2)n1 [Example 7, N2,N2-dimethyl-N4-(2-(piperidin-1-yl)ethyl)-1,3,5-triazine-2,4,6-triamine] | 97.4 |  |  | 95.8 | 131 | 101 |  |  |  |  | 
16 | 245 to 255 | CN(C)c1nc(N)nc(Nc2ccc3c(c2)CCC3)n1 [Example 23, N2-(2,3-dihydro-1H-inden-5-yl)-N4,N4-dimethyl-1,3,5-triazine-2,4,6-triamine] | 63 | 1.91 | 10.7 | 37.2 |  |  |  |  |  |  | 
17 | 173 to 176 | COc1ccc(Nc2nc(N)nc(N(C)C)n2)cc1 [Example 15, N2,N2-dimethyl-N4-(4-methoxyphenyl)-1,3,5-triazine-2,4,6-triamine] | 57.1 | 91.1 | 114 | 53.6 |  |  |  |  |  |  | 
18 | 240 to 264 | CN(C)c1nc(N)nc(Nc2cc(Cl)cc(Cl)c2)n1 [Example 24, N2-(3,5-dichlorophenyl)-N4,N4-dimethyl-1,3,5-triazine-2,4,6-triamine] | 55.8 | 136 | 49.9 | 41.7 |  |  |  |  |  |  | 
19 | 176.5 to 177 | CN(C)c1nc(N)nc(NCCCN2CCCC2=O)n1 [Example 9, 1-(3-(4-amino-6-(dimethylamino)-1,3,5-triazin-2-ylamino)propyl)pyrrolidin-2-one] | 93.5 |  |  | 95.2 | 120 | 110 |  |  |  |  | 
20 | 213 to 215 | COc1ccc(OC)c(Nc2nc(N)nc(N(C)C)n2)c1 [Example 19, N2-(2,5-dimethoxyphenyl)-N4,N4-dimethyl-1,3,5-triazine-2,4,6-triamine] | 69.2 | 131 | 116 | 74.5 |  |  |  |  |  |  | 
